The supplement of paper PMC11424490

Tests used:
Test in all cases: combination cScore with sotorasib (Bliss gap around IC50) (%PoC); higher = stronger additive effect
NCI-H2122 = system: NCI-H2122
Outline: (§1)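 NCI-H2122, NCI-H358 and SW837 cells (500 or 800 per well, 384-well plates) were dosed in concentration matrices after 24 h and grown 72 h, or 144 h for SW837. CellTiter-Glo luminescence was normalised to vehicle wells as percent of control and fitted with four-parameter curves. The score averages the Bliss-independence gap (expected minus measured viability) over a field around both monotherapy IC50s, or at the top concentrations when no IC50 was reached.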

SW837 = system: SW837
Outline: as §1

NCI-H358 = system: NCI-H358
Outline: as §1

Compound | combination cScore with sotorasib (NCI-H2122) | combination cScore with sotorasib (SW837) | combination cScore with sotorasib (NCI-H358)
C[C@@H]1OCC2(CCN(c3cnc(Sc4ccnc(N)c4Cl)c(N)n3)CC2)[C@@H]1N [TNO155] + C=CC(=O)N1CCN(c2nc(=O)n(-c3c(C)ccnc3C(C)C)c3nc(-c4c(O)cccc4F)c(F)cc23)[C@@H](C)C1 [sotorasib] | 41.9 | 41.3 | 10.6
C[C@H](Nc1ccc2c(c1)OCCn1cc(N3C(=O)OC[C@H]3C(F)F)nc1-2)C(N)=O [GDC-0077] + C=CC(=O)N1CCN(c2nc(=O)n(-c3c(C)ccnc3C(C)C)c3nc(-c4c(O)cccc4F)c(F)cc23)[C@@H](C)C1 [sotorasib] | 25.4 | 18.3 | 3.7
Cc1nc(-c2cn3c(n2)-c2ccc(-c4cnn(C(C)(C)C(N)=O)c4)cc2OCC3)n(C(C)C)n1 [Taselisib] + C=CC(=O)N1CCN(c2nc(=O)n(-c3c(C)ccnc3C(C)C)c3nc(-c4c(O)cccc4F)c(F)cc23)[C@@H](C)C1 [sotorasib] | 25.3 | 32.8 | 7.14
O=C(c1cc(Cc2n[nH]c(=O)c3ccccc23)ccc1F)N1CCN(C(=O)C2CC2)CC1 [Olaparib] + C=CC(=O)N1CCN(c2nc(=O)n(-c3c(C)ccnc3C(C)C)c3nc(-c4c(O)cccc4F)c(F)cc23)[C@@H](C)C1 [sotorasib] | 6.94 | 8.33 | 1.2
O=C1c2c(O)ccc(O)c2C(=O)c2c(NCCNCCO)ccc(NCCNCCO)c21 [Mitoxantrone] + C=CC(=O)N1CCN(c2nc(=O)n(-c3c(C)ccnc3C(C)C)c3nc(-c4c(O)cccc4F)c(F)cc23)[C@@H](C)C1 [sotorasib] | 11.3 | 7.33 | 1.3
CC/C(=C(\c1ccccc1)c1ccc(OCCN(C)C)cc1)c1ccccc1 [Tamoxifen] + C=CC(=O)N1CCN(c2nc(=O)n(-c3c(C)ccnc3C(C)C)c3nc(-c4c(O)cccc4F)c(F)cc23)[C@@H](C)C1 [sotorasib] | 11.1 | 0.835 | 2.01
O=C(C1CC1)N1CC[C@@H](Cn2c(-c3ccc(-c4ccc5occc5c4)cc3)nc3cnccc32)C1 + C=CC(=O)N1CCN(c2nc(=O)n(-c3c(C)ccnc3C(C)C)c3nc(-c4c(O)cccc4F)c(F)cc23)[C@@H](C)C1 [sotorasib] | 14.4 | 13.8 | 1
CCN1CCN(Cc2ccc(Nc3ncc(F)c(-c4cc(F)c5nc(C)n(C(C)C)c5c4)n3)nc2)CC1 [Abemaciclib] + C=CC(=O)N1CCN(c2nc(=O)n(-c3c(C)ccnc3C(C)C)c3nc(-c4c(O)cccc4F)c(F)cc23)[C@@H](C)C1 [sotorasib] | 9.29 | 19.6 | 6.78
C[C@@H]1CN(CC(=O)Nc2ccc3c(c2)Cc2cccc(-c4cc(=O)cc(N5CCOCC5)o4)c2S3)C[C@H](C)O1 + C=CC(=O)N1CCN(c2nc(=O)n(-c3c(C)ccnc3C(C)C)c3nc(-c4c(O)cccc4F)c(F)cc23)[C@@H](C)C1 [sotorasib] | 17.1 | 9.38 | 5.09
CCc1c2c(nc3ccc(O)cc13)-c1cc3c(c(=O)n1C2)COC(=O)[C@]3(O)CC [SN-38] + C=CC(=O)N1CCN(c2nc(=O)n(-c3c(C)ccnc3C(C)C)c3nc(-c4c(O)cccc4F)c(F)cc23)[C@@H](C)C1 [sotorasib] | 11.8 | 2.7 | 2.64
Cc1cc(C)c(CNC(=O)c2cc(-c3ccc(N4CCNCC4)nc3)cc3c2c(C)cn3C2CCCC2)c(=O)[nH]1 + C=CC(=O)N1CCN(c2nc(=O)n(-c3c(C)ccnc3C(C)C)c3nc(-c4c(O)cccc4F)c(F)cc23)[C@@H](C)C1 [sotorasib] | 10.7 | 1.67 | 2.26
CCc1nc(N)nc(N)c1-c1ccc(Cl)cc1 [Pyrimethamine] + C=CC(=O)N1CCN(c2nc(=O)n(-c3c(C)ccnc3C(C)C)c3nc(-c4c(O)cccc4F)c(F)cc23)[C@@H](C)C1 [sotorasib] | 5.47 | -4.42 | -6.53
COc1cc(Nc2ncc(F)c(Nc3ccc4c(n3)N(COP(=O)(O)O)C(=O)C(C)(C)O4)n2)cc(OC)c1OC [Fostamatinib] + C=CC(=O)N1CCN(c2nc(=O)n(-c3c(C)ccnc3C(C)C)c3nc(-c4c(O)cccc4F)c(F)cc23)[C@@H](C)C1 [sotorasib] | 23.3 | 23.7 | 8.55
Cc1nc(Nc2n[nH]c3c2CN(C(=O)N[C@H](CN(C)C)c2ccccc2)C3(C)C)c2sccc2n1 + C=CC(=O)N1CCN(c2nc(=O)n(-c3c(C)ccnc3C(C)C)c3nc(-c4c(O)cccc4F)c(F)cc23)[C@@H](C)C1 [sotorasib] | 17.5 | 4.19 | -0.36
CC(=O)c1c(C)c2cnc(Nc3ccc(N4CCNCC4)cn3)nc2n(C2CCCC2)c1=O [Palbociclib] + C=CC(=O)N1CCN(c2nc(=O)n(-c3c(C)ccnc3C(C)C)c3nc(-c4c(O)cccc4F)c(F)cc23)[C@@H](C)C1 [sotorasib] | 8.77 | 38.3 | 3.92
COc1cccc2c1C(=O)c1c(O)c3c(c(O)c1C2=O)C[C@@](O)(C(C)=O)C[C@@H]3O[C@H]1C[C@H](N)[C@H](O)[C@H](C)O1 [Daunorubicin] + C=CC(=O)N1CCN(c2nc(=O)n(-c3c(C)ccnc3C(C)C)c3nc(-c4c(O)cccc4F)c(F)cc23)[C@@H](C)C1 [sotorasib] | 18.1 | 5.95 | 2.01
C#Cc1cccc(Nc2ncnc3cc(OCCOC)c(OCCOC)cc23)c1 [Erlotinib] + C=CC(=O)N1CCN(c2nc(=O)n(-c3c(C)ccnc3C(C)C)c3nc(-c4c(O)cccc4F)c(F)cc23)[C@@H](C)C1 [sotorasib] | 27.4 | 23 | 10.2
COC(=O)[C@]12CCC(C)(C)C[C@H]1[C@H]1C(=O)C=C3[C@@]4(C)C=C(C#N)C(=O)C(C)(C)[C@@H]4CC[C@@]3(C)[C@]1(C)CC2 [Bardoxolone methyl] + C=CC(=O)N1CCN(c2nc(=O)n(-c3c(C)ccnc3C(C)C)c3nc(-c4c(O)cccc4F)c(F)cc23)[C@@H](C)C1 [sotorasib] | 13 | 3 | -1.43
COc1cc(CCc2cc(NC(=O)c3ccc(N4CC(C)NC(C)C4)cc3)n[nH]2)cc(OC)c1 (stereo not drawn) [AZD4547] + C=CC(=O)N1CCN(c2nc(=O)n(-c3c(C)ccnc3C(C)C)c3nc(-c4c(O)cccc4F)c(F)cc23)[C@@H](C)C1 [sotorasib] | 11.8 | 8.33 | 5.01
Nc1cc(C(F)(F)F)c(-c2cc(N3CCOCC3)nc(N3CCOCC3)n2)cn1 [BKM120] + C=CC(=O)N1CCN(c2nc(=O)n(-c3c(C)ccnc3C(C)C)c3nc(-c4c(O)cccc4F)c(F)cc23)[C@@H](C)C1 [sotorasib] | 16.9 | 15.9 | 4.4
CC[C@H](Nc1ncnc2[nH]cnc12)c1nc2cccc(F)c2c(=O)n1-c1ccccc1 [Cal-101] + C=CC(=O)N1CCN(c2nc(=O)n(-c3c(C)ccnc3C(C)C)c3nc(-c4c(O)cccc4F)c(F)cc23)[C@@H](C)C1 [sotorasib] | 29.1 | 7.76 | 3.19
CCNC(=O)C[C@@H]1N=C(c2ccc(Cl)cc2)c2cc(OC)ccc2-n2c(C)nnc21 [iBET-762] + C=CC(=O)N1CCN(c2nc(=O)n(-c3c(C)ccnc3C(C)C)c3nc(-c4c(O)cccc4F)c(F)cc23)[C@@H](C)C1 [sotorasib] | 22.3 | 7.05 | 5.17
O=P1(N(CCCl)CCCl)NCCCO1 (stereo not drawn) [Cyclophosphamide] + C=CC(=O)N1CCN(c2nc(=O)n(-c3c(C)ccnc3C(C)C)c3nc(-c4c(O)cccc4F)c(F)cc23)[C@@H](C)C1 [sotorasib] | -0.02 | -10.5 | 4.33
Cc1c(CN2CCC(Nc3ncnc4sc(CC(F)(F)F)cc34)CC2)ccc2[nH]c(C#N)cc12 [MI-463] + C=CC(=O)N1CCN(c2nc(=O)n(-c3c(C)ccnc3C(C)C)c3nc(-c4c(O)cccc4F)c(F)cc23)[C@@H](C)C1 [sotorasib] | 10.2 | 12.3 | 2.97
COc1cc2/c(=N/c3ccc(Br)cc3F)nc[nH]c2cc1OCC1CCN(C)CC1 [Vandetanib] + C=CC(=O)N1CCN(c2nc(=O)n(-c3c(C)ccnc3C(C)C)c3nc(-c4c(O)cccc4F)c(F)cc23)[C@@H](C)C1 [sotorasib] | 28.4 | 22.6 | 7.76
CC1(N)CCN(c2cnc(-c3cccc(Cl)c3Cl)c(N)n2)CC1 [SHP099] + C=CC(=O)N1CCN(c2nc(=O)n(-c3c(C)ccnc3C(C)C)c3nc(-c4c(O)cccc4F)c(F)cc23)[C@@H](C)C1 [sotorasib] | 19.1 | 9.98 | 7.84
